From patent US10104882B2, “Methods and compositions for preventing and treating electrophile-mediated toxicities” (priority 2013, dated 2018)
Entries after “also recorded” stand apart in the source; their conditions may differ.

What was measured:
[1] = Ionization parameters (pKa, % anion); type: physicochemical
[2] = Prevention of NAPQI-induced GSH sulfhydryl loss by 1,3-dicarbonyl compounds (in chemico); type: biochemical
Text: FIG. 3. […] Numbers in parentheses are respective IC50 values.
FIG. 4. […] Numbers in parentheses are respective IC50 values.
(§1) However, acrolein and other electrophiles used in this research are α,β-unsaturated carbonyls, whereas NAPQI and pBQ are quinone derivatives. […] Although both compounds are relatively acidic (low pKa values), thiol protection is limited since the corresponding adduct reactions involving the enolates of these acids are likely to be reversible. […] 2-ACP was the most protective 1,3-dicarbonyl compound tested in this and other studies^54 and was, therefore, the focus of subsequent research. […] 2-ACP (50 μM) was also effective at protecting thiol loss induced by pBQ, the degradation product of NAPQI (data not shown). […] These electrophiles target nucleophilic sulfhydryl groups that play critical roles in protein function and cellular redox balance.

[3] = Protection against pBQ-induced thiol loss (in chemico); type: biochemical; conditions: 50 μM
Text: as §1

male C57 BL mice = assay: Mouse model of oral acetaminophen (APAP) overdose hepatotoxicity/lethality; type: in vivo
Procedure: FIG. 7A-7B. […] Hepatoprotectants were administered 20 mins before (−20), 20 mins after (+20) or 60 mins after (+60) APAP intoxication.
A separate group received the PEG400 vehicle 20 mins prior to AAP. […] Vehicle control mice (n=10) received sequential injections of PEG400 (i.p. followed by oral). At several times post-AAP administration (2, 6, 24, 48 and 168 hrs), groups of mice were anesthetized in a carbon dioxide chamber and heparinized blood samples were collected. Samples were centrifuged and resulting serum was retained for analyses (see below). Livers were also excised, weighed and tissue samples were collected for histopathological evaluation. Remaining tissue was snap frozen in liquid nitrogen. Hepatotoxicity was determined by quantification of serum alanine aminotransferase (ALT) and aspartate aminotransferase (AST) using colorimetric assays. Serum lactate dehydrogenase (LDH) was also measured as an index of generalized AAP-induced organ toxicity. To evaluate the extent of cellular oxidative stress in liver homogenates, the unsaturated aldehyde by-products of lipid peroxidation, HNE and malondialdhyde (MDA), were determined according to a modification of the Gerard-Monnier et al. method^27. In addition, soluble thiol contents were measured in homogenates according to LoPachin et al.^44.

rat liver = assay: Acute ischemia-reperfusion injury of rat liver; type: in vivo, rats
Procedure: FIG. 9. Effect of 2-ACP on liver ischemia. 2-ACP (2.40 mmol/kg) or vehicle was injected i.p. 10 mins before clamping the portal vasculature for 45 mins. At the completion of the Ischemic phase, clamps were removed and the liver was reperfused for 180 mins. Following reperfusion, blood samples were removed for analysis of liver enzymes (ALT, AST) and LDH in plasma. Joining lines indicate statistically significant differences in treatment groups at ***P<0.001 level of significance.
FIG. 10. Effect of 2-ACP on liver reperfusion. 2-ACP (2.40 mmol/kg) or vehicle was injected i.p. 10 mins before restoration of hepatic circulation (reperfusion phase). At the completion of reperfusion, blood samples were removed for analysis of liver enzymes (ALT, AST) and LDH (a general enzyme indicator of tissue injury) in plasma. Joining lines indicate statistically significant differences in treatment groups at ***P<0.001 level of significance.
FIG. 11. […] At the completion of reperfusion, blood samples were removed for analysis of liver enzymes (ALT, AST) and LDH (a general enzyme indicator of tissue injury) in plasma. Joining lines indicate statistically significant differences in treatment groups at ***P<0.001 level of significance.
IR injury is the pathophysiological basis for stroke, myocardial infarction and other organ failure. It is also an underlying cause of allograft rejection following tissue transplantation. To investigate the possibility that 2-ACP and other nucleophilic dicarbonyl derivatives might be useful in preventing IR-mediated organ damage, rats were anesthetized and I/R was induced by clamping the portal vein and hepatic artery using commercially available microclips placed at the porta hepatis. The ischemic state was maintained for 45 mins, which affected approximately 70% of the liver mass. Following removal of the microclamps, hepatic reperfusion was maintained for 180 min. Animals were then sacrificed and plasma samples were taken for subsequent analysis of lactate dehydrogenase (LDH; a general enzyme indicator of cell injury) and liver enzymes (AST and ALT). […] A sham group (laparotomy only) provided baseline data for the appearance of liver enzyme in plasma. […] This level of hepatocyte leakage indicates substantial irreversible cell injury. […] Thus, prior 2-ACP administration is able to diminish the pathophysiological disposition of the ischemic phase. Further, amelioration of the ischemic phase truncates subsequent culmination of hepatocyte injury during reperfusion. To determine whether hepatoprotection was phase-specific and dose-dependent, 2-ACP (1.20-2.40 mmol/kg) was injected i.p. 10 mins prior to the restoration of hepatic circulation (reperfusion phase).

[4] = physiological conditions (pH 7.4); cited from earlier work
[5] = tested on: Rat striatal synaptosomes; conditions: acrolein 1-1000 μM with cytoprotectant 500 μM; cited from earlier work
MN9D cells [6] = conditions: pre-incubation; cited from earlier work
MN9D cells [7] = conditions: cited from earlier work

## CC(=O)C1CCCC1=O (stereo not drawn) [2-ACP, 2-acetylcyclopentanone]
[1]; pH = 7.4
  % Anion (pH = 7.4): 28.5%
[1]; physiological pH (7.4)
  fraction present as nucleophilic enolate/thiolate anion: ~30%
[2]; 2-ACP 25-200 μM, NAPQI 2-128 μM
  thiol protection against NAPQI over concentration range: provides thiol protection over a broad range of concentrations
[2]; equimolar concentrations (50 μM), pH 7.4
  prevention of NAPQI-induced thiol loss: three-fold increase in the respective IC50 value
[3]
  protection of thiol loss induced by pBQ: effective
Male C57 BL mice; compound alone, no APAP
  changes in hepatic parameters, compound alone: neither NAC nor ACP alone caused significant changes
Male C57 BL mice; i.p. 2.40 mmol/kg, 20 min after (+20) APAP
  protection from APAP-induced lethality (survival): complete protection
Male C57 BL mice; i.p. 2.40 mmol/kg, 20 min before oral APAP 500 mg/kg, 7 day period
  protection from APAP-induced lethality (survival): completely prevented APAP lethality; also recorded: complete protection
Male C57 BL mice; i.p. 2.40 mmol/kg, 60 min after (+60) APAP
  protection from APAP-induced lethality (survival): ineffective
Male C57 BL mice; i.p. pretreatment, oral APAP
  biochemical indices of hepatocyte death (plasma ALT, AST, LDH) and oxidative stress (liver thiol loss, unsaturated aldehyde content): prevented APAP-induced liver cell death
  histopathology: liver centrilobular necrosis: prevented the liver centrilobular necrosis
Male C57 BL mice; i.p. pretreatment, 2-ACP 0.80-2.40 mmol/kg, NAC 4.80-7.20 mmol/kg
  dose-dependency of protection from APAP-induced lethality: dose-dependent, although it occurred over a narrow dose-range
Male C57 BL mice; oral 4.80 mmol/kg
  oral hepatoprotection at increased dose: improved oral 2-ACP hepatoprotection
Male C57 BL mice; oral gavage 2.40 mmol/kg, 20 min before oral APAP
  protection from APAP-induced lethality (survival): modest improvements in APAP survival rate
Male C57 BL mice; oral, HEPES buffer pH 9.0
  oral hepatoprotection with buffered gavage solution: improved oral 2-ACP hepatoprotection
Rat liver; i.p. 2.40 mmol/kg 10 mins before ischemia (45 min), reperfusion 180 min
  plasma liver enzymes (ALT, AST) and LDH after I/R: considerable reductions in the plasma appearance of liver enzymes
Rat liver; i.p. 10 mins before reperfusion, 2-ACP 1.20-2.40 mmol/kg, equimolar NAC
  plasma liver enzymes (ALT, AST) and LDH after I/R: substantial hepatocyte dose-dependent protection
[4]
  effect on rate of acrolein-induced sulfhydryl (thiol) loss: completely prevented
[5]
  change in acrolein IC50 for synaptosomal DA transport inhibition: largest increases
MN9D cells [6]
  protection from acrolein-induced cell loss: completely prevented
MN9D cells [7]
  protection against H2O2-induced cell death: completely prevented cell death
